# Test results as given in the OPERA property sets (Mansouri et al. 2018).
row,SMILES,logP
1,O=C(O)CCC1=NS(=O)(=O)c2cc(Cl)cc(Cl)c2N1,1.04
2,O=C(O)CCC1=NS(=O)(=O)c2ccccc2N1,-0.18
3,O=C(O)CCC1=NS(=O)(=O)c2cc(Br)ccc2N1,0.93
4,O=C(O)CSC1=NS(=O)(=O)c2cc(Br)cc(Br)c2N1,1.16
5,O=C(O)CCCC1=NS(=O)(=O)c2cc(Br)ccc2N1,1.02
6,O=C(O)CSC1=NS(=O)(=O)c2ccccc2N1,0.18
7,O=C(O)CSC1=NS(=O)(=O)c2ccc(Cl)c(Cl)c2N1,1.1
8,COc1ccc2c(c1)NC(CCCC(=O)O)=NS2(=O)=O,0.12
9,O=C(O)CCCC1=NS(=O)(=O)c2ccc(Cl)cc2N1,0.83
10,COc1ccc2c(c1)NC(CCC(=O)O)=NS2(=O)=O,0.18
11,O=C(O)CCC1=NS(=O)(=O)c2ccc(Cl)cc2N1,0.72
12,O=C(O)CCCC1=NS(=O)(=O)c2cc(Cl)ccc2N1,0.83
13,O=C(O)CCCC1=NS(=O)(=O)c2cc(Br)cc(Br)c2N1,1.51
14,O=C(O)CCC1=NS(=O)(=O)c2cc(Cl)ccc2N1,0.69
15,O=C(O)CCC1=NS(=O)(=O)c2cc(Br)cc(Br)c2N1,1.35
16,O=C(O)CCCC1=NS(=O)(=O)c2cc(Cl)cc(Cl)c2N1,1.22
17,Cc1ccc2c(c1)NC(CCCC(=O)O)=NS2(=O)=O,0.33
18,O=C(O)CSC1=NS(=O)(=O)c2cc(Cl)cc(Cl)c2N1,1.09
19,O=C(O)CCC1=NS(=O)(=O)c2cc(Cl)c(Cl)cc2N1,1.5
20,O=C(O)CCCC1=NS(=O)(=O)c2cc(Cl)c(Cl)cc2N1,1.8

# The remaining lines, values ahead:
row,logP,SMILES
1,1.43,O=C(O)CCSC1=NS(=O)(=O)c2cc(Cl)ccc2N1
2,0.72,O=C(O)CSC1=NS(=O)(=O)c2cc(Cl)ccc2N1
3,1.96,O=C(O)CCSC1=NS(=O)(=O)c2ccc(C(F)(F)F)cc2N1
4,1.77,O=C(O)CCSC1=NS(=O)(=O)c2cc(Br)ccc2N1
5,0.96,COc1ccc2c(c1)NC(SCCC(=O)O)=NS2(=O)=O
6,0.66,O=C(O)CCSC1=NS(=O)(=O)c2ccccc2N1
7,2.04,O=C(O)CCSC1=NS(=O)(=O)c2cc(Br)cc(Br)c2N1
8,1.79,O=C(O)CCSC1=NS(=O)(=O)c2cc(Cl)cc(Cl)c2N1
9,0.37,COc1ccc2c(c1)NC(SCC(=O)O)=NS2(=O)=O
10,1.16,Cc1ccc2c(c1)NC(SCCC(=O)O)=NS2(=O)=O
11,1.62,O=C(O)CSC1=NS(=O)(=O)c2ccc(C(F)(F)F)cc2N1
12,0.16,Cc1ccc2c(c1)NC(CCC(=O)O)=NS2(=O)=O
13,1.24,O=C(O)CCCC1=NS(=O)(=O)c2ccc(C(F)(F)F)cc2N1
14,0.82,O=C(O)CSC1=NS(=O)(=O)c2ccc(Cl)cc2N1
15,1.81,O=C(O)CCSC1=NS(=O)(=O)c2cc(Cl)c(Cl)cc2N1
16,1.6,O=C(O)CCSC1=NS(=O)(=O)c2ccc(Cl)cc2N1
17,0.7,Cc1ccc2c(c1)NC(SCC(=O)O)=NS2(=O)=O
18,0.92,O=C(O)CSC1=NS(=O)(=O)c2cc(Br)ccc2N1
19,1.3,O=C(O)CCC1=NS(=O)(=O)c2ccc(C(F)(F)F)cc2N1
